Data set [1] in a line: Chemical Stability Data for Analogs.
A short description of data set [2]: Animal weight and hematocrit in 3LL tumor-bearing mice. The protocol: (§1) Animals are followed by weighing, palpation and measurement of tumor size. […] A positive control compound, for example cyclophosphamide at 170 mg/kg/injection is given every 6 days. Results computed include mean animal weight, tumor size, tumor weight and survival time. For confirmed therapeutic activity, the test composition should be tested in two multi-dose assays. Female C57/BL mice were inoculated with 1×10^6 Lewis Lung carcinoma (3LL) cells subcutaneously in the middle of the back. […] Cyclophosphamide (170 mg/kg given every 6 days subcutaneously beginning on day 3 after tumor cell inoculation) was used as a control. Tumor volumes and animal weights were measured 2×/week and the animals euthanized when the volume of the tumors in the control group reached an average of 2000 mm^3. The ratio (T/C) of the tumor volumes in the treated group (T) to the control group (C) were determined. Terminal cardiac bleeds were obtained and analyzed for red blood cell concentration (hematocrit, HCT).

Data set [3] concerns Lewis Lung carcinoma (3LL) cells. Nature of the data set: In Vivo 3LL Lewis Lung Carcinoma: Primary Tumor Growth. As to conditions: 3LL s.c. in female C57/BL mice; TM and CHTM 50 mg/kg po by gavage from day after inoculation; cyclophosphamide 170 mg/kg s.c. every 6 days from day 3. How it is done: The tumor model used was 3LL JF in C57BL/6 mice. […] The test compound is administered daily for 11-25 days.
as §1

The mark [4] stands for this setting: After 10 days, Oven to room conditions.

Here are results for 17 compounds from US20040019043A1, “Thiomolybdate analogues and uses thereof” (priority 2002, published 2004).

Marks after values point to notes of the source that are not given here.

As for `C[N+]1(C)CCCC1.C[N+]1(C)CCCC1.[S]=[Mo](=[S])([S-])[S-]` [1,1-dimethylpyrrolidinium, Tetrathiomolybdate, bis(1,1-dimethylpyrrolidinium)], the “% remaining” value in data set [1] (setting [4]) was 70%. On the same count and under the same terms, next, `Cc1cc[n+](C)cc1` [1,4-dimethylpyridinium, Tetrathiomolybdate, bis(1,4-dimethylpyridinium)]: 32%; `CCn1cc[n+](C)c1.CCn1cc[n+](C)c1.[S]=[Mo](=[S])([S-])[S-]` [1-ethyl-3-methyl-1H-imidazolium, Tetrathiomolybdate, bis(1-ethyl-3-methyl-1H-imidazolium)]: 75%. With `[NH4+].[NH4+].[SH-].[SH-].[S]=[Mo]=[S]` [Ammonium, ammonium tetrathiomolybdate], the “% remaining” value in data set [1] (*9 days, different study, Oven to room conditions) is on record as “*48%”. In data set [2] (mouse, in vivo), the “HCT (hematocrit, red blood cell concentration)” value (“HCT” for short) is 35% and the “MOUSE WEIGHT % of initial” value turned out to be 93%*. Besides, the “T/C (ratio of tumor volumes in treated group to control group)” value in data set [3] turned out to be 0.59. As for `C[N+](C)(C)CCO` [Choline, Tetrathiomolybdate, bis(choline)], the “% remaining” value in data set [1] (setting [4]) is reported as 62%. Further, in data set [2] (mouse, in vivo), the “HCT” value is 35% and the “MOUSE WEIGHT % of initial” value is recorded as 103%. Take `O=P1(N(CCCl)CCCl)NCCCO1` (stereo not shown) [Cyclophosphamide]: in data set [2] (3LL tumor-bearing female C57/BL mice, same dosing as T/C), the “MOUSE WEIGHT % of initial” value was 105%. Moreover, the “HCT” value in data set [2] (terminal cardiac bleeds, normal is 45%) amounted to 40%. Moreover, in data set [3], the “T/C (ratio of tumor volumes in treated group to control group)” value came out at 0.74. With `CC[N+](C)(CC)CC.CC[N+](C)(CC)CC.[S]=[Mo](=[S])([S-])[S-]` [Methyltriethylammonium, Tetrathiomolybdate, bis(triethylmethyl ammonium)], the “% remaining” value in data set [1] (setting [4]) was found to be 63%. Take `CC[N+](CC)(CC)c1ccccc1.CC[N+](CC)(CC)c1ccccc1.[S]=[Mo](=[S])([S-])[S-]` [Triethylphenylammonium, Tetrathiomolybdate, bis(triethylphenyl ammonium)]: the “% remaining” value in data set [1] (setting [4]) was 76%.

For the compound `C[N+](C)(C)Cc1ccccc1.C[N+](C)(C)Cc1ccccc1.[S]=[Mo](=[S])([S-])[S-]` [Trimethylbenzylammonium, Tetrathiomolybdate, bis(benzyltrimethylammonium)], in data set [1] (setting [4]), the “% remaining” value amounted to 94%. Consider `C[N+](C)(C)c1ccccc1.C[N+](C)(C)c1ccccc1.[S]=[Mo](=[S])([S-])[S-]` [Trimethylphenylammonium, Tetrathiomolybdate, bis(phenyltrimethylammonium)], for which the “% remaining” value was 98% in data set [1] (7 days, 74-77% RH, RT) and 85% in data set [1] (setting [4]).

`C[N+](C)(Cc1ccccc1)c1ccccc1.C[N+](C)(Cc1ccccc1)c1ccccc1.[S]=[Mo](=[S])([S-])[S-]` [bis(benzylphenyldimethylammonium), Tetrathiomolybdate, bis(benzylphenyldimethylammonium)]: the “% remaining” value in data set [1] (7 days, 74-77% RH, RT) is recorded as 45%. As for `C[N+](C)(C)CC1CC1.C[N+](C)(C)CC1CC1.[S]=[Mo](=[S])([S-])[S-]` [bis(cyclopropylmethyltrimethylammonium), Tetrathiomolybdate, bis(cyclopropylmethyltrimethyl ammonium)], the “% remaining” value in data set [1] (7 days, 74-77% RH, RT) is on record as 86%. The same measure, in the same setting: the value for `C=C[N+](C)(C)C.C=C[N+](C)(C)C.[S]=[Mo](=[S])([S-])[S-]` [bis(vinyltrimenthyammonium), Tetrathiomolybdate, bis(vinyltrimethyl ammonium)] was 72%. `C[N+](C)(C)CCCC[N+](C)(C)C` [butane-1,4-bis(trimethylammonium)]: the “% remaining” value in data set [1] (setting [4]) is listed as 40%. For the compound `C[N+](C)(C)CCCCCC[N+](C)(C)C.[S]=[Mo](=[S])([S-])[S-]` [hexane-1,6-bis(trimethylammonium), Tetrathiomolybdate, hexane-1,6-bis(trimethylammonium)], in data set [1] (7 days, 74-77% RH, RT), the “% remaining” value turned out to be 94%.

`C[N+](C)(C)CCCCC[N+](C)(C)C` [pentane-1,5-bis(trimethylammonium), Tetrathiomolybdate, pentane-1,5-bis(trimethylammonium)]: in data set [1] (setting [4]), the “% remaining” value was determined as 86%. As to Ethylenebis(trimethylammonium), the “% remaining” value in data set [1] (setting [4]) is 40%.
